Values after ≈ are worked out from the molar mass of the structure shown. Read-outs that look alike come from different tables or passages of the source. Positions of bridges follow the written chain, without caps; N, C: chain ends. Non-standard residues stand in square brackets, D forms with d. Residues, ends and D or L forms follow the SMILES beside them. *: point of attachment. Ethyl(2-propionyloxy) = CCC(=O)OCC*; Ethyl(2-OPiv) = CC(C)(C)C(=O)OCC*; Dab = NCC[C@H](N)C(=O)O
Columns and labels:
E. coli ATCC 25922 = format: cell-based, Escherichia coli
Description: (§1) All 81 compounds prepared in Examples 2 and 3 underwent screening against a panel of Gram-negative bacterium to assess their ability to inhibit bacterial growth. […] The median value is presented.

A. baumannii ATCC 19606 = format: cell-based, Acinetobacter baumannii
Description: as §1

P. aeruginosa ATCC 27853 = format: cell-based, Pseudomonas aeruginosa
Description: as §1

K. pneumoniae ATCC 33495 = format: cell-based, Klebsiella pneumoniae
Description: as §1

[1] = test system: K. pneumoniae ATCC 700603; format: cell-based, Klebsiella pneumoniae
Description: as §1

[2] = test system: K. pneumoniae ATCC MS6671; format: cell-based, Klebsiella pneumoniae
Description: as §1

E. coli ATCC MS8345 = format: cell-based, Escherichia coli
Description: as §1
Expansion of the polymyxin macrocycle by substituting […]) offered little advantage in antimicrobial activity but was generally well tolerated although for A. baumanni and P. aeruginosa this was detrimental.

Vero cell line = assay: Cellular toxicity against Vero cell line; format: cell-based
Protocol: (§2) FIG. 6 is a graph showing cell survival as a function of the indicated compound concentration. Data are representative of triplicate experiments.
(§3) To evaluate if the ClipPA modifications introduced any new toxicity, inhibitory concentrations against Vero and HaCaT cell lines were determined. […] The standard error for each measurement is shown.

HaCaT cell line = assay: Cellular toxicity against HaCaT cell line; format: cell-based
Protocol: as §2, §3

[3] = test system: colistin-resistant E. coli; format: cell-based, Escherichia coli
Description: (§4) Given the promising antimicrobial activity and low toxicity associated with compounds 29, 35 and to a lesser extent 38, these compounds were progressed to a further round of phenotypic antimicrobial susceptibility testing using a panel of clinically relevant multidrug resistant Gram-negative pathogens. This panel included isolates phenotypically characterised as carbapenem-resistant Enterobacteriacea (CRE), extended spectrum β-lactamase (ESBL) producing Enterobacteriacea, colistin-resistant E. coli, carbapenem-resistant Acinetobacter baumannii (CRAB) or carbapenem-resistant Pseudomonas aeruginosa (CRPA). These isolates were chosen because each was resistant to multiple different families of clinically used antibiotics making treatment options limited and importantly, each of these pathogen types are recognised as “Priority 1: CRITICAL” on the World Health Organization (WHO) priority pathogen list for R&D of new antibiotics. Antimicrobial activity against any of these pathogens would therefore be of clinical importance. […] However, we note that many of the compounds tested in Example 4 did show good activity against colistin-resistant E. coli.

[4] = test system: carbapenem-resistant Acinetobacter baumannii (CRAB); format: cell-based
Description: as §4

[5] = test system: carbapenem-resistant Enterobacteriacea (CRE); format: cell-based
Description: as §4

[6] = test system: carbapenem-resistant Pseudomonas aeruginosa (CRPA); format: cell-based
Description: as §4

[7] = test system: kidney organoids derived from human induced pluripotent stem cells; assay: Nephrotoxicity on kidney organoids, renal tubule deterioration by bright field imaging; format: cell-based; settings: scored after 48 h; also: key: 1 = unaffected; 2 = mild deterioration; 3 = severe deterioration; 4 = complete deterioration
Protocol: Selected polymyxin analogues were evaluated for cytotoxicity in physiologically relevant human kidney tissue, using kidney organoids derived from human induced pluripotent stem cells (Soo et al. 2018). Monolipidated analogues 29, 31, 33, containing a propyl, decyl or phenyl lipid, dilapidated compounds, 35, 38, 39, containing a propyl, tert-butyl or phenyl, lipid, respectively and the N-capped, di-lipidated (phenyl) 49 were selected.
The control compound polymyxin B and the seven ClipPA analogues were tested by adding a range of concentrations (based on Gallado-Godoy et al. 2016) to the organoids at day 12 of the protocol, shown previously to correspond to optimal maturity of the organoid tissues.
Toxicity was scored after 48 h for signs of renal tubule deterioration visible by bright field imaging (not shown).

[8] = test system: extended spectrum β-lactamase (ESBL) producing Enterobacteriacea; format: cell-based
Description: as §4

Row | Molecule | MIC E. coli ATCC 25922 (E. coli ATCC 25922; ATCC 25922) | MIC A. baumannii ATCC 19606 (A. baumannii ATCC 19606; ATCC 19606) | MIC P. aeruginosa ATCC 27853 (P. aeruginosa ATCC 27853; ATCC 27853) | MIC K. pneumoniae ATCC 33495 (K. pneumoniae ATCC 33495; ATCC 33495) | MIC K. pneumoniae ATCC 700603 ([1]; ATCC 700603) | MIC K. pneumoniae ATCC MS6671 ([2]; ATCC MS6671) | MIC E. coli ATCC MS8345 (E. coli ATCC MS8345; ATCC MS8345) | MIC ([3]; colistin-resistant) | MIC ([4]; carbapenem-resistant (CRAB)) | MIC ([5]; E. cloacae, IMP-4) | MIC ([5]; E. coli, NDM-1) | MIC ([5]; K. pneumoniae, KPC-2) | MIC ([5]; K. pneumoniae, NDM-5) | MIC ([6]; carbapenem-resistant (CRPA)) | other results
1 | CCC(=O)OCCSC[C@H](N)C(=O)N[C@@H](CCN)C(=O)N[C@H](C(=O)N[C@@H](CCN)C(=O)N[C@H]1CCNC(=O)[C@H]([C@@H](C)O)NC(=O)[C@H](CCN)NC(=O)[C@H](CCN)NC(=O)[C@H](CC(C)C)NC(=O)[C@@H](Cc2ccccc2)NC(=O)[C@H](CCN)NC1=O)[C@@H](C)O [Compound 29] (H-C(Ethyl(2-propionyloxy))[Dab]T[Dab][Dab][Dab][dF]L[Dab][Dab]T; lactam 5-C) | 2 µg/mL (≈ 1.58 µM) | 2 µg/mL (≈ 1.58 µM) | 2 µg/mL (≈ 1.58 µM) | 0.125 µg/mL (≈ 0.0987 µM) | 0.5 µg/mL (≈ 0.395 µM) | >32 µg/mL | 32 µg/mL (≈ 25.3 µM) | >32 µg/mL | 4 µg/mL (≈ 3.16 µM) | 2 µg/mL (≈ 1.58 µM) | 2 µg/mL (≈ 1.58 µM) | 2 µg/mL (≈ 1.58 µM) | 2 µg/mL (≈ 1.58 µM) | >32 µg/mL | IC50 Vero (Vero cell line): 2422 ± 38.98 µg/mL (≈ 1910 µM); amount required to cause inhibition (Vero cell line): > 500 µg/mL; fold less toxic towards Vero than Colistin or Polymyxin B (Vero cell line): ~2.5 fold; IC50 HaCaT (HaCaT cell line): 2534 ± 169.2 µg/mL (≈ 2000 µM); amount required to cause inhibition (HaCaT cell line): > 500 µg/mL; inhibitory effects against HaCaT compared with Colistin or Polymyxin B (HaCaT cell line): comparable
2 | CCC(=O)OCCSC[C@@H]1NC(=O)[C@@H](Cc2ccccc2)NC(=O)[C@H](CCN)NC(=O)[C@@H](NC(=O)[C@H](CCN)NC(=O)[C@@H](NC(=O)[C@H](CCN)NC(=O)[C@@H](N)CSCCOC(=O)CC)[C@@H](C)O)CCNC(=O)[C@H]([C@@H](C)O)NC(=O)[C@H](CCN)NC(=O)[C@H](CCN)NC1=O [Compound 35] (H-C(Ethyl(2-propionyloxy))[Dab]T[Dab][Dab][Dab][dF]C(Ethyl(2-propionyloxy))[Dab][Dab]T; lactam 5-C) | 0.5 µg/mL (≈ 0.369 µM) | 32 µg/mL (≈ 23.6 µM) | >32 µg/mL | 1 to 2 µg/mL | 1 µg/mL (≈ 0.737 µM) | >32 µg/mL | >32 µg/mL | >32 µg/mL | 8 µg/mL (≈ 5.9 µM) | 2 µg/mL (≈ 1.47 µM) | 2 µg/mL (≈ 1.47 µM) | 4 µg/mL (≈ 2.95 µM) | 4 µg/mL (≈ 2.95 µM) | >32 µg/mL | 
3 | C[C@@H](O)[C@@H]1NC(=O)[C@H](CCN)NC(=O)[C@H](CCN)NC(=O)[C@H](CSCCOC(=O)C(C)(C)C)NC(=O)[C@@H](Cc2ccccc2)NC(=O)[C@H](CCN)NC(=O)[C@@H](NC(=O)[C@H](CCN)NC(=O)[C@@H](NC(=O)[C@H](CCN)NC(=O)[C@@H](N)CSCCOC(=O)C(C)(C)C)[C@@H](C)O)CCNC1=O [Compound 38] (H-C(Ethyl(2-OPiv))[Dab]T[Dab][Dab][Dab][dF]C(Ethyl(2-OPiv))[Dab][Dab]T; lactam 5-C) | 0.5 µg/mL (≈ 0.354 µM) | 2 µg/mL (≈ 1.42 µM) | 4 µg/mL (≈ 2.83 µM) | 0.5 µg/mL (≈ 0.354 µM) | 0.5 µg/mL (≈ 0.354 µM) | >32 µg/mL | 16 µg/mL (≈ 11.3 µM) | 16 µg/mL (≈ 11.3 µM) | 2 µg/mL (≈ 1.42 µM) | 2 µg/mL (≈ 1.42 µM) | 2 µg/mL (≈ 1.42 µM) | 2 µg/mL (≈ 1.42 µM) | 2 µg/mL (≈ 1.42 µM) | >32 µg/mL | 
4 | Polymyxin B [PMB, reference compound] |  |  |  |  |  |  |  |  |  | 1 µg/mL | 1 µg/mL | 2 µg/mL | 2 µg/mL |  | MIC E. coli ATCC 25922 (E. coli ATCC 25922; median of triplicate): 0.25 µg/mL; MIC A. baumannii ATCC 19606 (A. baumannii ATCC 19606; median of triplicate): 0.5 µg/mL; MIC P. aeruginosa ATCC 27853 (P. aeruginosa ATCC 27853; median of triplicate): 0.25 µg/mL; MIC K. pneumoniae ATCC 33495 (K. pneumoniae ATCC 33495; median of triplicate): 0.5 µg/mL; MIC K. pneumoniae ATCC 700603 ([1]; median of triplicate): 0.25 µg/mL; MIC K. pneumoniae ATCC MS6671 ([2]; median of triplicate): >32 µg/mL; MIC E. coli ATCC MS8345 (E. coli ATCC MS8345; colistin-resistant strain, median of triplicate): 4 µg/mL; Score (nephrotoxicity on kidney organoids) ([7]; 100 μM): 2; Score (nephrotoxicity on kidney organoids) ([7]; 300 μM): 3; Score (nephrotoxicity on kidney organoids) ([7]; 1 mM): 4; IC50 Vero (Vero cell line; Vero cell line, ± standard error): 939.0 ± 63.32 µg/mL; IC50 HaCaT (HaCaT cell line; HaCaT cell line, ± standard error): 1998 ± 27.74 µg/mL; MIC ([3]; E. coli, CR (colistin-resistant), MCR-1): 8 µg/mL; susceptibility of colistin-resistant E. coli in words ([3]; in words): resistant; MIC ([4]; A. baumannii, CRAB, OXA-23): 1 µg/mL; MIC ([6]; P. aeruginosa, CRPA, VIM-2): 8 µg/mL; susceptibility of CRPA in words ([6]; in words): resistant; MIC ([8]; E. coli, CTX-M-15): 1 µg/mL; MIC ([8]; S. enterica, CTX-M-55): 2 µg/mL
